The text below walks through data of patent US20260159810A1, “MEDIUM COMPOSITION FOR INDUCING DIFFERENTIATION FROM STEM CELLS TO MACROPHAGES AND DIFFERENTIATION METHOD USING SAME” (SUNGKWANG MEDICAL FOUNDATION, priority 2022, published 2026).

Assay [1] deals with macrophage-specific markers (MHC 1, MHC 2, CD11b, CD86, CX3CR1, CD16) in hPSC-derived floating cells. Description: Identification of macrophage-specific markers by FACS. To be noted: medium supplemented with fasudil during differentiation to macrophages. In kind it is cell-based, human. As for the experimental part: The expression pattern of markers specific to macrophages in the cells obtained in Example 1, Comparative Example 1, and Comparative Example 2 was investigated. Specifically, confirmation was performed using fluorescence-activated cell sorting (FACS, BD FACSCalibur™). Results of cells expressing CD11b, a surface marker of macrophages, and CD86, which is expressed in antigen presenting cells, confirmed through FACS are shown in FIG. 5. Results of cells expressing CX3CR1, which regulates macrophage function in inflammatory sites, and CD16, which is associated with antibody-dependent cell-mediated cytotoxicity (ADCC), confirmed through FACS are shown in FIG. 6.
On the technique in general: Flow cytometry measures light scatter and fluorescence of single cells or particles in a stream.

In assay [2] the test system is mouse thymus cells. Description: Measurement of phagocytosis: differentiated macrophages co-cultured with fluorescently stained target cells. In kind it is cell-based. The following applies: various E:T ratios; cells positive for both CD11b and target-cell fluorescence; FIG. 7. Here is the method:
Phagocytosis of macrophages obtained from Example 1 and Comparative Example 1 was confirmed. Specifically, macrophages (effectors) obtained from Example 1 and Comparative Example 1 were co-cultured with mouse thymus cells (targets, fluorescently stained) at various E:T (effector:target) ratios. After co-culture, cells were collected and phagocytosis of macrophages was measured by measuring cells that simultaneously expressed macrophage-specific markers (CD11b) and fluorescence that had been stained on target cells.

In the case of `O=S(=O)(c1cccc2cnccc12)N1CCCNCC1` [fasudil], the “expression of macrophage-specific markers” value in assay [1] is recorded as “increased”. For the same molecule, the phagocytosis of macrophages result in assay [2] is given as “increased”.
